pEC50: −log10 of the molar value.
Each molecule was assayed on SMN2 promoter (assay: SMN2 promoter-β-lactamase (BLA) assay in NSC-34 cells). Settings: 15 NSC-34 SMN2-promoter-BLA clones with low BLA activity.
Format: cell-based, mouse
Source text: Compounds were screened for their ability to increase SMN2 gene transcription. In general the screening method of the invention involves the use of an SMN2 promoter-β-lactamase (BLA) assay in NSC-34 cells. […] This construct was transfected into the NSC-34 cells and a stable pool of SMN2-promoter-BLA cells was generated. […] Optimized protocols are presented in the procedures below. […] Subculture Protocol for and the […]-Bla Cell Line (#5.3) and the SMN2 Promoter-Bla Cell Line (#11). […] Cells were kept at a density between 50,000 and 500,000/ml and were fed every three days with DMEM 5% FCS and incubated at 37° C., 5% CO2 and 90% humidity. • b. Cells were then plated at low density (50,000 cells/ml). • c. […] Cells were fed by manually pipetting the cells, and passaging the cells 1 to 10 to a new flask. […] Standard Assay Protocol #1 for SMN2 Promoter Assays in 96-Well Plates: • e. Cells were washed twice with cold PBS by spinning down and resuspending at 250,000 cells/ml. • f. Cells were resuspended in DMEM 0% FCS at a density of 500,000 cells/ml. • g. Cells were then dispensed 100 μl cells per well of a 96-well, black wall, clear bottom assay plate (Corning Costar, Cat. # 3904). Plate can be pre-formatted with test compounds. • h. […] Cells were incubated for 1 hour in the dark at room temperature. • 6×CCF2-AM Staining Solution: • 60 μl of Sol B • 6 μl of CCF2-AM (1 mM) • 12 μl of Probenecid (1 M, Sigma, Cat # 8761) • 1 μl of Sol C • j. Assay plates were read on a fluorimeter (for example, the Cytofluor 4000 from Perceptive Biosystems) using the following two settings: 460/40 nm emission with 395/25 nm excitation, and 530/25 nm emission with 395/25 nm excitation. • k. […] Standard Assay Protocol #2 for SMN2 Promoter Assays in 96-Well Plates: • l. Cells were washed twice with cold PBS by spinning down and resuspending at 250,000 cells/ml. • m. Cells were then resuspended in DMEM 1% FCS Charcoal Dextran-treated (Hyclone, Cat # SH30038.05) at a density of […]. • n. Cells were then incubated for 24 hours at 37° C. • o. 100 μl cells per well were then dispensed in a 96-well, black wall, clear bottom assay plate (Corning Costar, Cat. # 3904). Plate can be pre-formatted with test compounds. • p. […] Cells were incubated for one hour in the dark at room temperature. • 6×CCF2-AM Staining Solution: • 60 μl of Sol B • 6 μl of CCF2-AM (1 mM) • 12 μl of Probenecid (1 M, Sigma, Cat# 8761) • 1 μl of SolC • r. Assay plates were read on a fluorimeter (for example, the Cytofluor 4000 from Perceptive Biosystems) using the following two settings: 460/40 nm emission with 395/25 nm excitation, and 530/25 nm emission with 395/25 nm excitation. • s.
In the case of CC(C)Cn1c(=O)n(C)c(=O)c2[nH]cnc21 [IBMX, reference compound], the “changes in BLA activity after treatment” value was “none showed changes in BLA activity”.

Same assay, conditions: Mus musculus; SMN2 promoter BLA assay, NSC-34 cells, 96-well plates
For Nc1nc(N)c2c(Sc3ccc(Cl)cc3)cccc2n1 [Compound I-2], the pEC50 was 6.28. Molecule Nc1nc(N)c2c(Oc3ccc(F)cc3)cccc2n1 [Compound I-3] has a pEC50 of 6.82. For O=C1C(=O)N(C(=O)NC2CCCCC2)c2ccc(Br)cc21 [VI-1], the pEC50 was 5.00. Nc1nc(N)c2c(Oc3ccccc3)cccc2n1 [Compound I-5] was tested, and the pEC50 was 6.60. With CCOc1cccc2nc(N)nc(N)c12 [Compound I-6] the pEC50 was 6.22. OCCNCCCOc1cccc(Cl)c1Cl [VII-1] showed a pEC50 of 5.52. CN(C)/C=C/c1c(C=O)c2cc([N+](=O)[O-])ccc2n1C [Compound V-1, 2-((E)-2-(dimethylamino)vinyl)-1-methyl-5-nitro-1H-indole-3-carbaldehyde] was tested, and the pEC50 was 5.17. CCCN(Cc1ccc([N+](=O)[O-])cc1)c1nc(O)nc(NC2CCCC2)n1 [VIII-1] showed a pEC50 of 5.05.

Same assay, conditions: clone SMN2BLAClone11
For CCCC(=O)[O-].[Na+] [sodium butyrate, reference compound], the “increase in BLA expression upon stimulation” value was 1.8 fold.
